Molecules are shown by their SMILES.

This data set is described as follows: gradient 5% acetonitrile 3 min, to 50% in 2 min, to 85% in 15 min, held 3 min, 100 µL/min. Particulars: column: Zorbax Extend-C18 2.1 x 50 mm; eluents: water / acetonitrile, 0.1% formic acid. The procedure, abridged:
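Data were gathered over 3 months by HPLC coupled to a quadrupole time-of-flight mass spectrometer, operated in positive and negative ionization mode. Mixtures of ~100 pure standards ran on a Zorbax Extend-C18 column (2.1 × 50 mm, 1.8 μm) at 100 μL/min, with water and acetonitrile each containing 0.1% formic acid and dead and dwell volumes of 40 μL and 900 μL. Retention time was read from adduct peaks picked by computer and checked manually.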
As for `COc1ccc(N2CCN(C(=O)C3CCCN(c4ccc(-c5ccccc5)nn4)C3)CC2)cc1` (centres undefined), the RP-LC retention time was 711 s.

Consider `CCOC(=O)CCC(=O)Nc1nnc2n1CCS2`, for which the RP-LC retention time stood at 558 s.

Compound `CCOC(=O)c1ccc(NC(=O)CCc2c(-c3ccc(Cl)cc3)nc3ccccn23)cc1` had an RP-LC retention time of 752 s.

The compound `Cc1cccc(N2CCN(S(=O)(=O)c3cc4n(c3)CCCNC4=O)CC2)c1` displayed an RP-LC retention time of 758 s.

The compound `Cc1nn(-c2ccccc2)cc1C(=O)N1CCC(CC(=O)N2CCOCC2)CC1` had an RP-LC retention time of 669 s.

As to `Cc1ccccc1-c1noc(CCc2nnc3ccc(N4CCOCC4)nn23)n1`, the RP-LC retention time worked out at 782 s.

For `CC(=O)c1ccc(N2CCN(C(=O)c3ccc(-n4cccn4)nn3)CC2)cc1`, the RP-LC retention time amounted to 695 s.

Compound `Cn1c(=O)c2cc(C(=O)NCc3cccnc3)nn2c2ccccc21` registered an RP-LC retention time of 599 s.

Regarding `O=C(NCCc1c[nH]c2ccccc12)c1cc(-c2ccc(F)cc2)c[nH]1`, the RP-LC retention time turned out to be 859 s.

In turn, `Cc1[nH]c2ccccc2c1C(=O)CSc1n[nH]c(N)n1` returned an RP-LC retention time of 567 s.

For the compound `CCn1cc(-c2ccc(F)cc2)cc1C(=O)NCC1CCCO1` (centres undefined), the RP-LC retention time was 909 s.

Consider `COc1ccc2c(c1)c(N1CCCC1=O)c(C(=O)Nc1ccc(F)cc1)n2C`, for which the RP-LC retention time stood at 952 s.

For the compound `O=S(=O)(Cc1ccccc1)N1CCN(Cc2cccc(F)c2)C2(CCOCC2)C1`, the RP-LC retention time was found to be 745 s.

As for `O=C(NCCc1c[nH]c2ccccc12)C1CCCN(c2nnc(N3CCCC3=O)s2)C1` (centres undefined), the RP-LC retention time came out at 690 s.

In the case of `O=c1cc(-c2ccccc2)nc2n1CCN2CCCN1CCOCC1`, the RP-LC retention time was 582 s.

Consider `Cc1cc2c(cc1S(=O)(=O)N1CCC(C(=O)NCc3ccccc3Cl)CC1)OCC(=O)N2`, for which the RP-LC retention time was determined as 789 s.

In turn, `C=CCNC(=O)Cc1c(C)n(CC=C)c2nc(-c3ccccc3)nn2c1=O` yielded an RP-LC retention time of 740 s.

The compound `CC(C)Oc1cccc(NC(=O)C2CCN(S(C)(=O)=O)c3cc(Cl)ccc3O2)c1` (centres undefined) yielded an RP-LC retention time of 998 s.

On to `CCSc1ccc(Cc2nnc(NC(=O)c3ccc(S(=O)(=O)N(C)C)cc3)o2)cc1`, for which the RP-LC retention time stood at 819 s.

`CCn1ccc(C(=O)NCC2Cn3cccc3C(=O)N2CC(C)C)n1` (centres undefined): the RP-LC retention time was determined as 680 s.

As for `COc1ccc(NC(=O)c2csc(-c3ccc(C)n3C)n2)c(OC)c1`, the RP-LC retention time came to 1200 s.

`CC(NC(=O)c1n[nH]c2ccccc12)C(=O)N1CCN(c2ccccn2)CC1` (centres undefined) showed an RP-LC retention time of 595 s.

In the case of `O=c1n(Cc2cccc(F)c2)nc2ccc(S(=O)(=O)N3CCc4ccccc4C3)cn12`, the RP-LC retention time amounted to 987 s.

Compound `CCn1c(=O)c2ccccc2n(Cc2nc(-c3ccc(F)c(Br)c3)no2)c1=O` showed an RP-LC retention time of 1120 s.

`O=C(CCn1nnc2cc(-c3noc(-c4ccc(F)c(F)c4)n3)ccc21)N1CCCC1` came in with an RP-LC retention time of 946 s.

`COc1cccc(-c2noc(Cn3cnc4c(nnn4-c4ccccc4OC)c3=O)n2)c1` had an RP-LC retention time of 914 s.

For the compound `COc1ccc(C(=O)N2CCN(c3ccc(=O)n(-c4ccc(C(C)C)cc4)n3)CC2)cc1OC`, the RP-LC retention time worked out at 867 s.

Take `COc1ccc(N2CC(c3noc(-c4ccccc4F)n3)CC2=O)cc1OC` (centres undefined): the RP-LC retention time came to 818 s.

Compound `CCCNC(=O)C1CCCN(c2nc3ncn(CC(=O)Nc4ccccc4F)c(=O)c3s2)C1` (centres undefined) returned an RP-LC retention time of 679 s.

As for `CN(CC(=O)N1CCN(c2ccccc2F)CC1)S(=O)(=O)c1c[nH]c(C(=O)N2CCCCC2)c1`, the RP-LC retention time turned out to be 836 s.

For the compound `CCn1c(CNC(=O)C2CCC2)nc2c1CN(S(=O)(=O)c1ccc(F)cc1)CC2`, the RP-LC retention time came out at 644 s.

With `COc1ccccc1NC(=O)c1oc2ccccc2c1NC(=O)Cc1ccc(F)cc1`, the RP-LC retention time came out at 1180 s.

Compound `Cc1nc(NC(=O)N2CCC[C@H]2C(N)=O)sc1-c1csc(C(C)(C)C)n1` showed an RP-LC retention time of 776 s.

As for `C(=C/c1nc2ccccc2o1)/c1ccc2c(c1)OCO2`, the RP-LC retention time came out at 1010 s.

In turn, `O=C(C1=CN(c2ccccc2)c2cc(F)ccc2S1(=O)=O)N1CCCCC1` returned an RP-LC retention time of 882 s.

`Cc1noc(C)c1S(=O)(=O)N1CCCC(Cn2c(C3CC3)nc3cccnc32)C1` (centres undefined) came in with an RP-LC retention time of 720 s.

`O=C(c1ccccc1)N1CCN(c2nnc3ccccn23)CC1` registered an RP-LC retention time of 608 s.

In the case of `Fc1ccc(C(OCCCc2cnc[nH]2)c2ccc(F)cc2)cc1`, the RP-LC retention time turned out to be 833 s.

The compound `O=C(Cn1ccc2sccc2c1=O)Nc1cccc(Cl)c1` had an RP-LC retention time of 800 s.

The compound `COc1cccc(C(=O)NC2(C(F)(F)F)C(=O)N(CC(C)C)C3=C2C(=O)CC(C)(C)C3)c1` (centres undefined) yielded an RP-LC retention time of 1040 s.

On to `COCCCNC(=O)c1ccc2nc(CCc3ccc(NC(C)=O)cc3)[nH]c2c1`, for which the RP-LC retention time worked out at 567 s.

On to `O=C(Cn1c(=O)n(C2CCCC2)c2ncccc21)Nc1ccc(Br)cc1`, for which the RP-LC retention time stood at 998 s.

Consider `CCn1cc(CCNC(=O)Nc2ccsc2C(=O)OC)c2cccnc21`, for which the RP-LC retention time is 762 s.

The compound `O=c1n(Cc2ccccc2)nc2n1CCN(S(=O)(=O)c1ccc3c(c1)CCC3)CC2` came in with an RP-LC retention time of 931 s.

`O=C1c2ccccc2C(=O)C1c1ccccn1` displayed an RP-LC retention time of 749 s.

`Cc1c(C(=O)NC(C)C)cnn1-c1ccc(-c2nc(C(C)C)no2)cn1` gave an RP-LC retention time of 931 s.

`CCCCc1ccc(NC(=O)CSc2nccc(N3CCCC3)n2)cc1`: the RP-LC retention time was 803 s.

For the compound `Cc1ccc(-c2cc(N3CCN(C(=O)c4ccc(C)c(C)c4)CC3)ncn2)cc1`, the RP-LC retention time amounted to 736 s.

On to `CC1(C)Cc2cccc(OCC(=O)NCc3n[nH]c(=O)c4ccccc34)c2O1`, for which the RP-LC retention time came to 661 s.

For the compound `CCOCC(=O)N1CC(c2nc(CCOC)no2)C1`, the RP-LC retention time came out at 600 s.

In turn, `O=C(c1ccc(F)cc1)N1CCN(c2cc(-c3cccs3)[nH]n2)CC1` registered an RP-LC retention time of 764 s.

The compound `COCCN1CCC(N2CCCN(S(=O)(=O)c3ccc(C)cc3)CC2)C1=O` (centres undefined) gave an RP-LC retention time of 591 s.

With `CCOC(=O)c1c(C)[nH]c(CCC(=O)NC(C)C)c1C`, the RP-LC retention time is 729 s.

As for `CSc1cccc(NC(=O)Cn2c(-c3ccccc3)nc(C)cc2=O)c1`, the RP-LC retention time was determined as 1050 s.

Compound `Cc1cccc(NC(=O)CN2C(=O)CCCc3cc(S(=O)(=O)N4CCC(C)CC4)ccc32)c1` registered an RP-LC retention time of 1010 s.

`O=S(=O)(NCCN1CCOC(c2ccccc2)C1)c1ccc2c(c1)CCCC2` (centres undefined) returned an RP-LC retention time of 632 s.

As for `CSc1ccc(CNC(=O)C2CCCN(c3nc4c(s3)c(C)nn4-c3ccc(F)cc3)C2)cc1` (centres undefined), the RP-LC retention time was 1190 s.

The compound `O=C1N=C(N2CCN(Cc3ccc(F)cc3)CC2)S/C1=C\c1cccc(O)c1` came in with an RP-LC retention time of 585 s.

The compound `O=c1n(Cc2ccc(F)cc2)nc2c(-c3nc(-c4cccc(F)c4)no3)cccn12` came in with an RP-LC retention time of 971 s.

Take `COc1cc(-c2ccc(NC(=O)NC3CC3)c(OC)c2)ccc1NC(=O)NC1CC1`: the RP-LC retention time is 824 s.

On to `COCCNC(=O)Cc1c(C)n(C)c2nc(-c3ccccc3)nn2c1=O`, for which the RP-LC retention time was 633 s.

`CCOc1cccc(-c2noc(Cn3nc(-c4ccc5c(c4)OCO5)ccc3=O)n2)c1` showed an RP-LC retention time of 1130 s.

In turn, `CCCCOc1ccc(-c2cc3c4nnc(CCC(=O)NCc5cccc(OC)c5)n4ccn3n2)cc1` yielded an RP-LC retention time of 946 s.

For `COc1ccc(C2Cn3nnc(-c4nc(-c5ccc(F)c(F)c5)no4)c3CO2)cc1` (centres undefined), the RP-LC retention time was determined as 1180 s.

Turning to `O=C(CCC1CCCN(S(=O)(=O)c2ccccc2)C1)N1CCN(c2ccccn2)CC1` (centres undefined), the RP-LC retention time is 657 s.

`Cc1ccccc1Nc1c(-c2ccc(Cl)cc2)nc2cnccn12`: the RP-LC retention time is 1030 s.

In the case of `O=C(NC1CCCCC1)c1nc(-c2cn(-c3ccc(Cl)cc3)nn2)no1`, the RP-LC retention time was 1030 s.

`O=C(C1CCN(c2nc3ccc(-c4cccs4)nc3s2)CC1)N1CCOCC1` showed an RP-LC retention time of 826 s.

The compound `COc1cccc(Nc2c(-c3ccc(SC)cc3)nc3cnccn23)c1` yielded an RP-LC retention time of 912 s.

The compound `Cc1sc(C)c(S(=O)(=O)NCCc2ccccc2)c1-c1cc(C(F)(F)F)on1` showed an RP-LC retention time of 1180 s.

In the case of `Cc1c2cnccc2c(C)c2c1c1ccccc1n2CCOC(=O)c1ccccc1`, the RP-LC retention time turned out to be 751 s.

As for `O=C(c1ccc(F)cc1)N1CCC2(CC1)OCC(C(=O)N1CCOCC1)N2C(=O)c1cccc(F)c1` (centres undefined), the RP-LC retention time was 679 s.

Turning to `c1cc(CN2CC(Oc3ccc(-c4noc(C5CC5)n4)cc3)C2)cs1`, the RP-LC retention time amounted to 700 s.

In turn, `CNC(=O)c1c(NC(=O)c2ccc(N(C)C)cc2)sc2c1CCC2` showed an RP-LC retention time of 1030 s.

Regarding `O=C(Cn1c(-c2cccs2)cc2cc(F)ccc21)NCCCN1CCOCC1`, the RP-LC retention time is 671 s.

In turn, `CN(CCc1noc(-c2ccc(F)cc2)n1)C(=O)NCc1ccccc1` had an RP-LC retention time of 839 s.

`COc1ccccc1NC(=O)C1CCCN1S(=O)(=O)c1cc2c(cc1C)NC(=O)CO2` (centres undefined) showed an RP-LC retention time of 808 s.

Compound `CCc1ccccc1NC(=O)N1CCC2(CC1)NC(=O)c1ccccc1N2CC` had an RP-LC retention time of 797 s.

`COc1ccccc1-c1nc(C2CCN(C(=O)c3cccc4[nH]ccc34)CC2)no1` returned an RP-LC retention time of 652 s.

These data come from the METLIN SMRT retention time set (Domingo-Almenara et al. 2019).
